Test results published in PubChem BioAssay (NCI).
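Test compounds were applied to cells in 96-well plates for 48 hours at 5 doses. GI50 is the concentration that inhibits growth by half. TGI marks complete inhibition of growth.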

Experiments:
Assay in all cases: NCI-60 cell line screen, 48 h
[1] = tested on: SF-295 CNS
[2] = tested on: SK-OV-3 ovarian
[3] = tested on: KM12 colon
[4] = tested on: ACHN renal
[5] = tested on: HOP-92 NSCLC
[6] = tested on: HCT-15 colon
[7] = tested on: SNB-75 CNS
[8] = tested on: PC-3 prostate
[9] = tested on: T-47D breast
[10] = tested on: HS 578T breast

SMILES	TGI [1] [µM]	TGI [2] [µM]	TGI [3] [µM]	TGI [4] [µM]	TGI [5] [µM]	TGI [6] [µM]	TGI [7] [µM]	GI50 [8] [µM]	TGI [8] [µM]	GI50 [1] [µM]	GI50 [9] [µM]	TGI [9] [µM]	GI50 [4] [µM]	GI50 [5] [µM]	GI50 [6] [µM]	GI50 [7] [µM]	GI50 [10] [µM]	TGI [10] [µM]	GI50 [2] [µM]	GI50 [3] [µM]
O=C(CCc1cc(-c2ccc(F)cc2)n[nH]1)N(Cc1ccccc1)Cc1ccccc1	> 100	> 100	> 100	> 100	> 100	> 100	> 100	–	–	–	–	–	–	–	–	–	–	–	–	–
COc1cc(CCc2ccncc2)cc(OC)c1OC	> 100	–	> 100	> 100	> 100	> 100	> 100	–	–	–	–	–	–	–	–	–	–	–	–	–
O=C1C(=Cc2ccc(F)cc2)C(=O)c2ccccc21	> 100	> 100	> 100	> 100	> 100	> 100	95.4	–	–	–	–	–	–	–	–	–	–	–	–	–
COc1ccc2c(c1)C=CC1C2CC[C@]2(C)C(NC(=O)/C=C/c3ccc(O)c(O)c3)CCC12 (some centres not stated)	70.3	–	–	19.8	26.5	13.3	20.5	4.64	18	31.7	12.2	29	7.5	10.6	3.05	6.01	27.2	> 100	–	–
CCN(CC)CCNc1ccc([N+](=O)[O-])c2nc3ccc(OC)cc3c(N)c12	2.96	3.58	2.57	2.89	3.19	2.68	3.64	–	2.78	–	–	3.16	–	–	–	–	–	2.89	–	–
NC1=C(O)C(=O)C(c2c[nH]c3ccc(OCc4ccccc4)cc23)O1 (configuration not stated)	> 100	> 100	> 100	> 100	> 100	> 100	> 91.3	–	> 100	–	–	> 100	–	–	–	–	–	> 100	–	–
Cc1c(Cl)cccc1NC(=O)C(=O)c1c(O)c2ccc(O)cc2oc1=O	> 100	> 100	> 100	> 100	> 100	> 100	> 100	–	–	–	–	–	–	–	–	–	–	–	–	–
CC(=O)[O][Hg][c]1s[c]([Hg][O]C(C)=O)[c]([Hg][O]C(C)=O)[c]1[Hg][O]C(C)=O	40.1	9.2	> 100	> 100	5.88	30.4	25.4	–	–	13.5	–	–	19.3	2.92	4.51	4.91	–	–	2.34	22.6
Oc1ccc(O)c(-n2cccn2)c1-n1cccn1	> 100	> 100	> 100	> 100	> 100	> 100	> 100	–	–	–	–	–	–	–	–	–	–	–	–	–
C=CCO[C@H]1CC[C@@]2(C)C(CC[C@]3(C)C2CC=C2[C@@H]4[C@@H](C)C(C)CC[C@]4(C(=O)O)CCC23C)C1(C)C (some centres not stated)	27.5	31.7	30.5	29.8	32.4	–	30.2	–	–	–	–	–	–	–	–	–	–	–	–	–
Cc1ccc(C)c(NC(=O)C(=O)Nn2c(=S)[nH]c3ccccc3c2=O)c1	> 100	> 100	> 100	> 100	> 100	> 100	> 100	–	–	–	–	–	–	–	–	–	–	–	–	–
C[C@H]1CC[C@@H]2[C@@H](C)[C@H]3[C@H](C[C@H]4[C@@H]5CC=C6C[C@@H](O)CC[C@]6(C)[C@H]5CC[C@]34C)N2C1	> 100	> 100	> 100	> 100	58.3	> 100	–	–	> 100	–	–	> 100	–	–	–	–	–	97.9	–	–
N#C/C(=C1\OC(N)=C(c2ccc(Cl)cc2)C1=O)c1ccc(Cl)cc1	29.2	89.1	31.4	33.1	32.2	–	32.4	–	–	–	–	–	–	–	–	–	–	–	–	–
CC/C(C)=C1\CCC(CN(C)C)C1=O (configuration not stated)	> 100	–	28.4	33.2	46.2	29.2	30.1	–	–	–	–	–	–	–	–	–	–	–	–	–
CCSc1nc(N)c2cnn(CC)c2n1	> 100	> 100	> 100	–	–	25.3	–	4.34	14.8	8.02	17.3	> 100	–	–	6.21	–	4.19	26	23.9	3.15
CN1C/C(=C\c2ccc(C(=O)O)cc2)C(=O)/C(=C/c2ccc(C(=O)O)cc2)C1	> 100	> 100	> 100	> 100	> 100	> 100	> 100	–	–	–	–	–	–	–	–	–	–	–	–	–
COC(=N)CCCl	> 100	> 100	> 100	> 100	> 100	> 100	> 100	–	> 100	–	–	–	–	–	–	–	–	–	–	–
N/C(CC(=O)NOC(=O)c1ccccc1)=N/OC(=O)c1ccccc1	61.6	97.3	> 100	> 100	> 100	> 100	–	–	> 100	–	–	> 100	–	–	–	–	–	> 100	–	–
C=Cc1cc(OC)c2c(c1)c(=O)oc1c2cc(OC)c2c(O)ccc(C3OC(C(C)O)C(O)C3O)c21 (configuration not stated)	0.0431	0.718	0.0499	–	0.3	–	0.0515	0.0105	0.153	0.00366	0.00812	0.08	–	0.0126	–	0.0157	0.0191	0.0617	0.0165	0.00674
c1ccc(-c2cc3n4c(-c5ccccc5)nn(-c5ccccc5)c4cnc-3n2)cc1	> 50	> 50	> 50	> 50	> 50	> 50	17.8	–	–	2.35	–	–	> 50	12	> 50	5.39	9.62	> 50	11.8	> 50
O/N=C1\C(=C\c2ccc3c(c2)OCCO3)CCCC1C(NO)c1ccc2c(c1)OCCO2 (configuration not stated)	> 100	> 100	52	> 100	93.4	68.6	72.6	–	–	–	–	–	–	–	–	–	–	–	–	–
C/C(=N\Nc1n[nH]c(=S)n1N)c1c(O)cc(C)oc1=O	> 100	> 100	> 100	> 100	> 100	> 100	> 100	–	–	–	–	–	–	–	–	–	–	–	–	–
